Reference: patent US20160082082A1, “USE OF THERAPEUTIC PEPTIDES FOR THE TREATMENT AND PREVENTION OF CANCER” (ARIZONA CANCER THERAPEUTICS L.L.C., priority 2008, published 2016)

Legend:
[1] = system: MMTV-pyV mT induced mammary gland tumors; experiment: MMTV-pyV mT transgenic mouse spontaneous breast cancer; type: in vivo, mice
Protocol: FIGS. 4A-4D. […] FIG. 4A) MMTV-pyV mT transgenic mice were injected with FITC-msPMIP (50 μg/g body weight), sacrificed four hours later and various tissues visualized using fluorescence microscopy. FITC-msPMIP localization in the mouse mammary gland tumors is shown (2.5× and 8×). FIG. 4B) Mammary gland tumors (>0.5 cm in diameter) were allowed to develop and mice were injected daily (50 μg/g body weight, 21 day treatment, intraperitoneal (i.p.) injection, 1× per day) with either msPMIP (7 mice) or PTD4 (6 mice). At the end of treatment, animals were sacrificed and proteins lysates made of the tumors for later analysis. […] Numbers above data are number of tumors that meet the size criteria over the total potential tumor sites.
MMTV-pyV mT mice (33), obtained from Jackson Laboratories) entered into study upon the development of tumors that measured ≧0.5 cm in at least one diameter. Only mice greater than seven weeks of age were included in the study and mice that developed fluid cysts were excluded. Animals were injected i.p. with 50 μg/g body weight of msPMIP or PTD4 once daily for 21 days. Each of ten mammary glands were measured using calipers every two days, and measurements were used to determine tumor volume based on the formula a^2×b/2, with a being the smaller diameter and b being the larger diameter. After treatment for 21 days, mice were sacrificed by CO2 inhalation and tissues resected. Several msPMIP treated mice were injected with FITC-msPMIP (50 μg/g body weight) one or four hours prior to sacrifice and intact tissues were visualized using a fluorescence MZFLIII Leica dissection microscope.

EGFR = target: T1, EGFR (Mus musculus, UniProt Q01279); experiment: Immunoblot of tumor lysates after EGF and peptide injection; type: in vivo, MMTV-pyV mT mice; details: EGF and peptide 30 minutes prior to sacrifice, after 21 day treatment
T1 construct: we generated protein lysates from tumors of MMTV-pyV mT animals injected with EGF and peptide; from tissue; host or cells: mammary gland tumours of MMTV-pyV mT mice
Protocol: (§1) FIGS. 6A-6B. PMIP is associated with reduced Mud 1 expression. FIG. 6A) A representative MMTV-pyV mT msPMIP (P) treated mouse and a PTD4 mouse (C) were each injected 30 minutes prior to sacrifice with epidermal growth factor (1 μg/g body weight) and with peptide. Following sacrifice the tumors were collected and protein lysates were generated. Protein (50 μg) was separated by SDS-PAGE, transferred and immunoblotted for expression of phosphotyrosine (PY99), EGFR (1005), Muc1 (CT2), and β-actin (AC-15). FIG. 6B) Lysates from MDA-MD-231 xenograft tumors (not treated with EGF; described in […]) were similarly analyzed to determine levels of EGFR and MUC1 protein expression. Relative protein levels of Muc1 were measured by densitometry and graphed (Muc1/β-actin, ANOVA, *p=0.014). Molecular weights are shown on the right. IB=immunoblot. White lines through blots indicate same gel and exposure but were non-contiguous.
To determine if msPMIP was affecting EGF-dependent degradation of EGFR, we generated protein lysates from tumors of MMTV-pyV mT animals injected with EGF and peptide 30 minutes prior to animal sacrifice (after a standard 21 day drug treatment).

Muc1 [2] = experiment: Immunoblot of transgenic tumor lysates for Muc1; type: in vivo, MMTV-pyV mT mice; details: MMTV-pyV mT model
Protocol: as §1
(§2) To determine if msPMIP blocked interaction between Muc1 and β-catenin, we began by establishing levels of Muc1 protein expression in the tumor lysates. […] While the mechanism of this loss is unknown, it would certainly result in a loss of Muc1-dependent oncogenic signaling.

MUC1 [3] = experiment: Immunoblot of xenograft tumor lysates for MUC1; type: in vivo, scid mice (MDA-MB-231 xenograft); details: MDA-MB-231 xenograft model
Protocol: as §1, §2

msPMIP: mouse PMIP, SEQ ID NO: 18: mouse Muc1 mimetic peptide in tandem with PTD4 protein transduction domain (YARAAARQARAPYEEVSAGNGSSSLS; fusion protein)
number of tumors sized 100-300 mm^3, end vs beginning of treatment ([1]; 50 μg/g i.p. daily, 21 days): remained the same
tumors larger than 100 mm^3 (of possible tumor sites) ([1]; 50 μg/g i.p. daily, 21 days): 27%
tumors that grew larger than 500 mm^3 by the end of the study ([1]; 50 μg/g i.p. daily, 21 days): 1%
number of established tumors that completely regressed ([1]; 21 day treatment, PTD4 n=60, PMIP n=70 tumor sites): four
tumor initiation (percent of tumor transitions from 0 mm^3 to 100 mm^3) ([1]; during drug treatment, p=0.0045): significant decrease
frank tumors remaining after treatment ([1]; one representative mouse, 21 day treatment): no frank tumors remaining
expression of EGFR in tumor lysates (EGFR): striking reduction
phosphotyrosine in tumor lysates (EGFR): striking reduction
Muc1 protein expression in tumor lysates (Muc1 [2]): induced a loss of Muc1 protein expression
Muc1 protein expression in tumor lysates (MUC1 [3]): induced a loss of Muc1 protein expression
